{"source": "patent US11414379B2", "about": "“SPAK kinase inhibitors as neuroprotective agents” (United States Government as represented by the Department …, priority 2018, dated 2022)", "key": {"KCC2 pThr906": {"tested_on": "KCC2 pThr906", "assay": "Phosphorylation immunoblot in KCC2-transfected HEK293 cells", "format": "cell-based, human", "settings": "concentration inhibiting phosphorylation", "procedure": "(§1) HEK293 (human embryonic kidney 293) cells were cultured on 10-cm-diameter dishes in DMEM supplemented with 10% (v/v) foetal bovine serum, 2 mM L-glutamine, 100 U/ml penicillin and 0.1 mg/ml streptomycin. HEK293 cells were transfected with a mixture of 20 μl of 1 mg/ml polyethylenimine (Polysciences) and 5-10 μg of plasmid DNA as described previously (Durocher et al., 2002). 36 hours post-transfection cells were stimulated with either control isotonic or hypotonic medium for a period of 30 minutes. Cells were lysed in 0.3 mL of ice-cold lysis buffer/dish, lysates were clarified by centrifugation at 4° C. for 15 minutes at 26,000 g and the supernatant aliquots were frozen in liquid nitrogen and stored at −20° C. Protein concentrations were determined using the Bradford method. Cells were treated with the indicated concentrations of the SPAK/OSR1 inhibitors. […] Hypotonic low chloride buffer was 67.5 mM sodium-gluconate, 2.5 mM potassium-gluconate, 0.25 mM CaCl2), 0.25 mM MgCl2, 0.5 mM Na2HPO4, 0.5 mM Na2SO4 and 7.5 mM HEPES (pH 7.5).\n(§2) The membranes were incubated for 30 min with TBST (Tris-buffered saline, 0.05% Tween-20) containing 5% (w/v) skim milk. The blots were then washed six times with TBST and incubated for 1 hour at room temperature with secondary HRP-conjugated antibodies diluted 5000-fold in 5% (w/v) skim milk in TBST. After repeating the washing steps, signals were detected with enhanced chemiluminescence reagent. Immunoblots were developed using a film automatic processor (SRX-101; Konica Minolta Medical) and films were scanned at 600 dpi (PowerLook 1000; UMAX). Figures were generated using Photoshop/Illustrator (Adobe). The densities of bands were measured with ImageJ. For phospho-antibody immunoprecipitation, KCC isoforms were immunoprecipitated from indicated cell extracts. 2 mg of the indicated clarified cell extract were mixed with 15 μg of the indicated phospho-specific KCC antibody conjugated to 15 μl of protein-G-Sepharose, in the added presence of […] of the dephosphorylated form of the phosphopeptide antigen, and incubated 2 hours at 4° C. with gentle shaking. Immunoprecipitates were washed three times with 1 mL of lysis buffer containing 0.15 M NaCl and twice with 1 ml of buffer A. Bound proteins were eluted with 1×LDS sample buffer.\n(§3) HEK293 cells were transfected with a DNA construct encoding wild type N-terminally FLAG-tagged KCC2. 36 hrs post-transfection, cells were exposed 30 min to either control isotonic or hypotonic low [C1^−] conditions, then treated in the same conditions for an additional 30 min with the indicated inhibitors at the concentrations noted. Cell lysates were subjected to SDS-PAGE and Western blotting with the indicated antibodies. See FIG. 3 for Western blot quantitation.\n(§4) Referring to FIG. 2, concentration-response experiments testing effects of Closantel analogs on phosphorylation of KCC2 Thr906/Thr1007 are shown. HEK293 cells were transfected with DNA construct encoding wild type N-terminally FLAG-tagged KCC2. 36 h post-transfection, cells were exposed 30 min to either control isotonic conditions or hypotonic low Cl^− conditions, then treated in the same conditions with the specified inhibitors (1b, 1c, 1f, 1d, 1h, and 1g, respectively) at the indicated concentrations for an additional 30 min. Lysates were subjected to SDS-PAGE and Western blotting with the indicated antibodies.\n(§5) Referring to FIG. 3, HEK293 cells were transfected with the DNA construct encoding wild type N-terminally FLAG-tagged KCC2. 36 h post-transfection, cells were exposed 30 min to either control isotonic or hypotonic low Cl^− conditions, then treated in the same conditions with the specified inhibitors at the indicated concen-trations for an additional 30 min. Lysates were subjected to SDS-PAGE and Western blotting with the indicated antibodies. Closantel, STOCK1S-14279 and STOCK1S-50699 were used as reference compounds."}, "SPAK pSer373": {"tested_on": "SPAK pSer373", "assay": "Phosphorylation immunoblot in KCC2-transfected HEK293 cells", "format": "cell-based, human", "settings": "concentration inhibiting phosphorylation", "procedure": "as §1, §2, §3, §4, §5"}, "KCC2 pThr1007": {"tested_on": "KCC2 pThr1007", "assay": "Phosphorylation immunoblot in KCC2-transfected HEK293 cells", "format": "cell-based, human", "settings": "concentration inhibiting phosphorylation", "procedure": "as §1, §2, §3, §4, §5"}, "[1]": {"tested_on": "Ang II-mediated hypertensive mice, pdMCAO", "assay": "Infarct volume and hemispheric swelling after pdMCAO in Ang II-infused mice", "format": "in vivo, mouse", "settings": "Ang II-infused mice (male or female); 2.5 mg/kg i.p. at 3 and 8 hrs after pdMCAO; 24 hrs; vs Veh", "procedure": "C57BL/6J mice received subcutaneous (s.c.) infusion of either saline or AngII via osmotic minipumps (model 1004, Alzet) at a rate of 1000 ng/kg/min for 14 days. BP was measured in awake mice by a tail-cuff method (Kent Scientific) as described previously (Huang et al. (2019) Stroke. 50:1021-1025).\nSaline-infused control and Ang II-mediated HTN mice were subsequently underwent permanent occlusion of the distal branches of the middle cerebral artery (pdMCAO) as described previously (Huang et al. (2019) Stroke. 50:1021-1025). Under isoflurane anesthesia, a skin incision at the midline of the neck was made and the left CCA was exposed and occluded by ligation and the skin was sutured. Another skin incision (1 cm) was made between the left eye and the ear using fine operation scissors. The temporal muscle was identified and detached from the skull in its apical and dorsal part without totally removing the muscle by the forceps. The MCA below the transparent skull in the rostral part of the temporal area, dorsal to the retro-orbital sinus was identified. If the MCA bifurcation was not visible (due to an anatomical normal variation), the most rostral vessel was identified. […] The artery, proximal and distal to the MCA bifurcation, was coagulated with the electrocoagulation forceps (in a bipolar mode at 7 W). […] The animal was placed in a cage and monitored for recovery from anesthesia. […]"}}}
{"smiles": "Cc1cc(C(C#N)c2ccc(Cl)cc2)c(Cl)cc1NC(=O)c1cc(Cl)ccc1O", "note": "(centres unmarked) [ZT-1a, 5-chloro-N-(5-chloro-4-((4-chlorophenyl)(cyano)methyl)-2-methylphenyl)-2-hydroxy-benzamide]", "values": [{"measurement": "KCC2 pThr906 (μM) hypo", "setting": "KCC2 pThr906; hypotonic low Cl- conditions", "value": "3, 3 μM"}, {"measurement": "KCC2 pThr906 (μM) Iso", "setting": "KCC2 pThr906; isotonic conditions", "value": "3, 3 μM"}, {"measurement": "SPAK pSer373 (μM) hypo", "setting": "SPAK pSer373; hypotonic low Cl- conditions", "value": 3, "unit": "μM"}, {"measurement": "SPAK pSer373 (μM) Iso", "setting": "SPAK pSer373; isotonic conditions", "value": 1, "unit": "μM"}, {"measurement": "KCC2 pThr1007 (μM) hypo", "setting": "KCC2 pThr1007; hypotonic low Cl- conditions", "value": 3, "unit": "μM"}, {"measurement": "KCC2 pThr1007 (μM) Iso", "setting": "KCC2 pThr1007; isotonic conditions", "value": 1, "unit": "μM"}, {"measurement": "decrease of hemispheric swelling", "setting": "[1]", "value": "~50", "unit": "%"}, {"measurement": "decrease of infarct volume", "setting": "[1]", "value": "~50", "unit": "%"}]}
